The values that follow come from ChEMBL document CHEMBL5715940 (Curr Biol, 2007).

Calls of active or inactive are those of the source. The rule behind the calls is not given here. Residues, ends and D or L forms follow the SMILES beside them. *: point of attachment. Cbz = O=C(OCc1ccccc1)*

Experiment [1] concerns HeLa. The experiment is described as follows: Induction of mitotic arrest in human HeLa cells with expressing H2B-GFP assessed as cells formed multilobed nuclei at 100 nM. Format: functional, cell-based.
The target of experiment [2] is Serine/threonine-protein kinase PLK1 (Homo sapiens) (UniProt P53350). The experiment is described as follows: Inhibition of Plk1 in human HeLa cells assessed as low level of cyclin B in total lysates of cells arrested in mitosis at 100 nM for 13 hr after the second thymidine release by immunoblot analysis. (In western blotting, separated proteins are transferred to a membrane and probed.)
Sequence of Serine/threonine-protein kinase PLK1 (Homo sapiens) (P53350 whole entry): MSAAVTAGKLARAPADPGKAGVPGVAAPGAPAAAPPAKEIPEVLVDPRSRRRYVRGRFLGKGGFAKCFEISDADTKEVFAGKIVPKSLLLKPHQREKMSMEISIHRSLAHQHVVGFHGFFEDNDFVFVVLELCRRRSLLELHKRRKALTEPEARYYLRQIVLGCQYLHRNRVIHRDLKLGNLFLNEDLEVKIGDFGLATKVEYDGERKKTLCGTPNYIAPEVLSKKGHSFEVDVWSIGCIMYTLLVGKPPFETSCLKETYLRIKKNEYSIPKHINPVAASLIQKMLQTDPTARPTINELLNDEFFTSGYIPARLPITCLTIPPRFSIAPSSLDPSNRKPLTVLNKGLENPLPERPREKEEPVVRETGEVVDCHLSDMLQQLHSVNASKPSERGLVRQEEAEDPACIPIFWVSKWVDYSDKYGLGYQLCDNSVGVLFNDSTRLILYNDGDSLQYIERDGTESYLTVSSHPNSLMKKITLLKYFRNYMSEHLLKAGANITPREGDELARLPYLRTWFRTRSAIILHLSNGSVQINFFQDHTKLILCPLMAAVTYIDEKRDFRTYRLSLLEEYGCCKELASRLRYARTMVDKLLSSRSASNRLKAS

The test system of experiment [3] is HeLa. The experiment is described as follows: Induction of mitotic arrest in human HeLa cells assessed as cell population in prophase incubated for 4 hrs after thymidine release relative to control relative to control. Format: functional.
For experiment [4], the system named is HeLa. The experiment is described as follows: Induction of mitotic arrest in human HeLa cells assessed as K-fibers persisted cells at […] incubated for 2 hrs after cold treatment by immunofluorescence analysis. It counts as functional, cell-based.
The test system of experiment [5] is HeLa. As to the kind of experiment: Induction of mitotic arrest in human HeLa cells assessed as appearance of microtubule bundles visible at many kinetochores at […] incubated for 2 hrs after cold treatment by transmission electron microscopy. Format: functional, cell-based.
Experiment [6] relates to HeLa. As to the kind of experiment: Induction of mitotic arrest in human HeLa cells assessed as appearance of kinetochore plates arranged on the spindle center at […] incubated for 2 hrs after cold treatment by transmission electron microscopy. Format: functional, cell-based.
Experiment [7] concerns the target Serine/threonine-protein kinase PLK1 (Homo sapiens) (UniProt P53350). To be noted: HeLa, dose 100.0 nM, time 12.0 min.
Experiment [8] shares this target. Conditions: HeLa, dose 100.0 nM, time 12.0 min. The source holds these as a separate data set.
The subject of experiment [9] is HeLa. The experiment is described as follows: Induction of mitotic arrest in human HeLa cells s stably expressing CENPA-GFP assessed as attachment of kinetochores to microtubule at 10 uM for 2 hrs by live cell imaging analysis. It counts as functional, cell-based.
The target of experiment [10] is Serine/threonine-protein kinase PLK1 (Homo sapiens) (UniProt P53350). As to the kind of experiment: Inhibition of Plk1 in human HeLa cells assessed as high level of cyclin B in total lysates of cells arrested in mitosis at 50 ng/ml for 13 hr after the second thymidine release by immunoblot analysis.
Experiment [11] deals with HeLa. The experiment is described as follows: Induction of mitotic arrest in human HeLa cells assessed as increase of cell population in prophase incubated for 3 hrs after thymidine release. Format: functional, cell-based.
In experiment [12] the test system is HeLa. The experiment is described as follows: Induction of mitotic arrest in human HeLa cells assessed as increase of cell population in prophase incubated for 6 hrs after thymidine release. Format: functional, cell-based.
The subject of experiment [13] is HeLa. As to the kind of experiment: Induction of mitotic arrest in human HeLa cells with stably express GFP-tagged histone H2B assessed as chromosome condensation measured at 730 mins after thymidine release. It counts as functional, cell-based.
Experiment [14] deals with HeLa. As to the kind of experiment: Induction of mitotic arrest in human HeLa cells with stably express GFP-tagged histone H2B assessed as decrease in prometaphase after thymidine release. It counts as functional, cell-based.
For experiment [15], the system named is HeLa. As to the kind of experiment: Induction of mitotic arrest in human HeLa cells with expressing H2B-GFP assessed as enter the apoptosis at 100 nM. Format: functional, cell-based.
Experiment [16] concerns HeLa. As to the kind of experiment: Induction of mitotic arrest in human HeLa cells with expressing H2B-GFP assessed as cells formed multilobed nuclei at 100 nM in the presence of hesperadin. Format: functional, cell-based.
Experiment [17] has as its system HeLa. The experiment is described as follows: Induction of mitotic arrest in human HeLa cells assessed as weakly centrosome in prometaphase arrested cells at 100 nM for 2 hrs by immunofluorescence analysis. Format: functional, cell-based.
The subject of experiment [18] is HeLa. As to the kind of experiment: Induction of mitotic arrest in human HeLa cells assessed as dim kinetochore signal in prometaphase arrested cells at 100 nM for 2 hrs by immunofluorescence analysis. It counts as functional, cell-based.
Experiment [19] relates to HeLa. The experiment is described as follows: Induction of mitotic arrest in human HeLa cells s stably expressing CENPA-GFP assessed as prophase microtubule asters at 100 nM for 4 hr after release by immunofluorescence analysis. Format: functional, cell-based.
For experiment [20], the system named is HeLa. The experiment is described as follows: Induction of mitotic arrest in human HeLa cells s stably expressing CENPA-GFP assessed as appear on mitotic microtubule at 100 nM for 4 hr release after NEBD by immunofluorescence analysis. Format: functional, cell-based.
The test system of experiment [21] is HeLa. The experiment is described as follows: Induction of mitotic arrest in human HeLa cells s stably expressing CENPA-GFP assessed as microtubules instantaneously organized to monopolar spindle at 100 nM for 4 hrs after NEBD by immunofluorescence analysis. Format: functional, cell-based.
The subject of experiment [22] is HeLa. As to the kind of experiment: Induction of mitotic arrest in human HeLa cells s stably expressing CENPA-GFP assessed as spindles lost astral microtubules at 10 uM within 10 to 30 mins by live cell imaging analysis. It counts as functional, cell-based. Conditions: time 10-30 min.
The test system of experiment [23] is HeLa. As to the kind of experiment: Induction of mitotic arrest in human HeLa cells s stably expressing CENPA-GFP assessed as focus on poles at 10 uM within 10 to 30 mins by live cell imaging analysis. Format: functional, cell-based. Conditions: time 10-30 min.
Experiment [24] concerns HeLa. As to the kind of experiment: Induction of mitotic arrest in human HeLa cells s stably expressing CENPA-GFP assessed as spindle poles often broadened at 10 uM for 30 mins by live cell imaging analysis. It counts as functional, cell-based.
The subject of experiment [25] is HeLa. As to the kind of experiment: Induction of mitotic arrest in human HeLa cells stably expressing CENPA-GFP assessed as appearance of shortened spindle formation at 10 uM incubated for 120 mins by live cell imaging analysis. Format: functional, cell-based.
Experiment [26] has as its system HeLa. The experiment is described as follows: Induction of mitotic arrest in human HeLa cells s stably expressing CENPA-GFP assessed as appearance of kinetochore pairs lose at 10 uM for 60 mins by live cell imaging analysis. It counts as functional, cell-based.
Experiment [27] deals with HeLa. As to the kind of experiment: Induction of mitotic arrest in human HeLa cells assessed as appearance of spindles lose the focused poles at 100 nM for 30 mins after thymidine release in the presence of MG132 by immunofluorescence microscopy. Format: functional, cell-based.
Experiment [28] deals with HeLa. As to the kind of experiment: Induction of mitotic arrest in human HeLa cells assessed as appearance of shortened spindle formation at 100 nM for 60 mins after thymidine release in the presence of MG132 by immunofluorescence microscopy. It counts as functional, cell-based.
The subject of experiment [29] is HeLa. As to the kind of experiment: Induction of mitotic arrest in human HeLa cells assessed as appearance of collapse spindle formation at 100 nM for 120 mins after thymidine release in the presence of MG132 by immunofluorescence microscopy. Format: functional, cell-based.
Experiment [30] deals with HeLa. As to the kind of experiment: Induction of mitotic arrest in human HeLa cells assessed as microtubule structures at 100 nM incubated for 2 hrs after cold treatment by immunofluorescence analysis. Format: functional, cell-based.
In experiment [31] the test system is HeLa. As to the kind of experiment: Induction of mitotic arrest in human HeLa cells assessed as appearance of kinetochore plates connected to few microtubules and lateral attachment at 100 nM incubated for 2 hrs after cold treatment by transmission electron microscopy. It counts as functional, cell-based.
Experiment [32] relates to HeLa. As to the kind of experiment: Induction of mitotic arrest in human HeLa cells assessed as appearance of kinetochore in opposite side of the chromosomes at 100 nM incubated for 2 hrs after cold treatment by transmission electron microscopy. It counts as functional, cell-based.

With `CCS(=O)(=O)Nc1ccc2c(c1)/C(=C(\Nc1ccc(CN3CCCCC3)cc1)c1ccccc1)C(=O)N2`, the outcome with HeLa [1] was Active. Moreover, in experiment [2], the inhibition result was “Active”.

On to `CCOC(=O)C1=C(C)NC(=S)NC1c1cccc(O)c1` (stereo not drawn) [MONASTROL], for which, in the experiment with HeLa [3], the Activity came to 5%. In addition, the result in the experiment on HeLa [4], in the experiment on HeLa [5] and with HeLa [6] was Active. Moreover, the inhibition entry in [7] and in experiment [8] was “Active” throughout.

For the molecule `CC(C)C[C@@H](C=O)NC(=O)[C@H](CC(C)C)NC(=O)[C@H](CC(C)C)NC(=O)OCc1ccccc1` (Cbz-Leu-Leu-Leu-aldehyde), in the experiment with HeLa [9], the result was Active.

Take `COC(=O)Nc1nc2cc(C(=O)c3cccs3)ccc2[nH]1`: the inhibition entry in [10] is “Active”.

On to `CC[C@@H]1C(=O)N(C)c2cnc(Nc3ccc(C(=O)NC4CCN(C)CC4)cc3OC)nc2N1C1CCCC1` [BI-2536], for which the Activity in the experiment on HeLa [3] was determined as 30%. The outcome in the experiment on HeLa [11], in the experiment on HeLa [12], in the experiment with HeLa [13], in the experiment on HeLa [14], in the experiment with HeLa [15] and with HeLa [16] was Active. Also, the outcome in the experiment on HeLa [17], in the experiment on HeLa [18], with HeLa [20], in the experiment with HeLa [21], in the experiment with HeLa [22] and with HeLa [23] was Active. Besides, the result with HeLa [24], in the experiment with HeLa [25], in the experiment with HeLa [26], with HeLa [27], in the experiment on HeLa [28] and in the experiment with HeLa [29] was Active. The outcome in the experiment with HeLa [31] and in the experiment on HeLa [32] was Active. Also, the result in the experiment with HeLa [19] and in the experiment on HeLa [30] was inactive.
